Test results taken from patent US10815252B2, “Biflavone-copper complex, preparation method and application thereof” (NANJING FORESTRY UNIVERSITY, priority 2017, dated 2020).

How the values were obtained:
herring sperm DNA (fDNA) = test: Interaction with fDNA by UV-vis spectroscopy, fluorescence spectroscopy and viscosity method; format: binding; conditions: UV-vis, fluorescence (fDNA-EB system), viscosity
Text: UV-vis spectroscopy, fluorescence spectroscopy and viscosity method are used to study the interaction between the Ame and herring sperm DNA (fDNA), and the interaction between the Ame-Cu complex and herring sperm DNA (fDNA), to further reveal the mechanism of antitumor activity, the obtained spectra are shown in FIGS. 7-11. […] Thereby, it can be speculated that the mechanism of antitumor activity of the Ame and its complex may be that Ame or the complex thereof enters the interior of the cell and intercalates with the DNA strand to cause apoptosis. Since the interaction of the complex with DNA is stronger than of the Ame, the antitumor activity thereof is also stronger than of the Ame.

[1] = ABTS method, free radical scavenging; format: biochemical; conditions: 25° C., 5 min reaction, 730 nm; read-out: IC50 for scavenging ABTS^+. free radicals
Method: (§1) The free radical scavenging capability of the Ame and the Ame-Cu complex were studied by pyrogallol auto-oxidation method and ABTS method with the following steps:
Determination of ABTS^+. free radical ion scavenging capability of the blank sample: at 25° C., 2.9 mL ABTS^+. free radical ion working solution was added into a 10 mL sample tube, 100 μL DMSO was added, after reacting for 5 min, the UV-vis spectrum was measured, and the absorption intensity A0 at 730 nm was recorded.
Determination of […]. free radical ion scavenging capability of the samples: at 25° C., 2.9 mL ABTS^+. free radical ion working solution was added into a 10 mL sample tube, 100 μL samples of different concentrations that were dissolved in DMSO were added, after reacting for 5 min, the UV-vis spectrum was measured, and the absorption intensity A1 at 730 nm was recorded, and the ABTS^+. free radical ion scavenging rate was calculated according to Formula 4. SR(%)=(1−A1/A0)×100% (Formula 4)
The ABTS^+. free radical scavenging capabilities of the Ame and the Ame-Cu complex are concentration dependent. Within a certain range, the scavenging rate is linear with the concentration. The curve of the scavenging rate and the concentration (c) is plotted in the present invention to obtain a corresponding linear equation, and the maximum half-inhibitory concentration (IC50 value) is calculated.

[2] = Pyrogallol auto-oxidation method, free radical scavenging; format: biochemical; conditions: Tris-HCl pH 8.20, 25° C., 322 nm, read-out: IC50 to scavenge O2^−. free radical
Method: as §1
(1) Pyrogallol Auto-Oxidation Method
Determination of auto-oxidation rate V0 of pyrogallol: 2 mL Tris-HCl buffer (pH=8.20) was added to a 10 mL sample tube at 25° C., 100 μL DMSO was added as a control, after adding 0.8 mL distilled water, 0.2 mL pyrogallol solution having a concentration of 2 mmol·L^−1 was added, the mixture was poured into a cuvette after mixing uniformly, the absorbance at 322 nm was measured with pure water as a blank, the A value was recorded every 10 s for a total of 4 min, linear regression was performed with t as the abscissa, and A as the ordinate, straight line slope thereof is V0, and the measurement was performed for three times to obtain an average value. […]

Structure (SMILES)	manner of interaction with fDNA (herring sperm DNA (fDNA))	IC50 [1] [µM]	IC50 [2] [µM]
CS(C)=[O+][Cu-4]1([O+]=S(C)C)[O+]=C2C=C(c3ccc(O)cc3)Oc3c2c(cc(O)c3-c2cc(-c3cc(=O)c4c(O)cc(O)cc4o3)ccc2O)[OH+]1 [Ame-Cu complex]	intercalation manner	6.31	4.57
O=c1cc(-c2ccc(O)c(-c3c(O)cc(O)c4c(=O)cc(-c5ccc(O)cc5)oc34)c2)oc2cc(O)cc(O)c12 [Ame, amentoflavone]	intercalation manner	20.7	23.3
